Numbering of substitutions follows the chain as printed. pEC50: −log10 of the molar value. In brackets after ≈: the same amount, converted by molar mass. Structures can show the parent of a compound that is named as a salt. Where two headings read alike, the source gives them in different places.
Experiments:
[1] = Photostability protocol (UV exposure, ICH Q1B, SUNTEST, HPLC); type: physicochemical; details: after 17 h exposure to UV light; for Elafibranor degradation (%): HPLC-UV at 350 nm
Method: In order to make the difference between the degradation only due to temperature within the SUNTEST apparatus chamber and the degradation only due to UV exposure, a second elafibranor salt sample protected from light is also placed in the SUNTEST chamber. All samples are then analyzed by HPLC.
The crystallized samples were stressed by exposure to UV light according to the photostatbility protocol described above.

PPARalpha [2] = biological target: T1, PPARalpha (Homo sapiens, UniProt Q07869); assay: Gal4-PPAR transactivation assay in COS-7 cells, human PPARalpha; type: cell-based
T1 sequence (Q07869 200-468 limits assumed): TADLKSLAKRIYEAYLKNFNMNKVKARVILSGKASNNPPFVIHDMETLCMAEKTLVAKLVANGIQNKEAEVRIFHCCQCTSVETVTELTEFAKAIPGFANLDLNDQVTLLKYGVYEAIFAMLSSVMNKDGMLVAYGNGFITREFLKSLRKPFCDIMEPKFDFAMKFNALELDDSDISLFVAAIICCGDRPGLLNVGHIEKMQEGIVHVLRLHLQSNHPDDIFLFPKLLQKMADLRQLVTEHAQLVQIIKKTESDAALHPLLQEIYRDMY
Method: (§1) Monkey kidney COS-7 cells were maintained in standard culture conditions (Dulbecco's modified Eagle's minimal medium: DMEM) supplemented with 10% fetal calf serum, 1% sodium pyruvate, 1% essential amino acids, 1% L-glutamine and 1% antibiotics at 37° C. in a humidified atmosphere of 5% CO2 and 95% air. The medium was changed every 2 days. All tested compounds were dissolved in DMSO. Cells were transfected using 4 μl JetPEI™ (Polyplus transfection)/μg of DNA. Briefly, 150 ng of DNA per well was transfected in a 96 well culture plate of adherent COS-7 cells (respecting the 10:1 ratio between the Gal4(RE)_TkpGL3 plasmid and the plasmid coding the nuclear receptor of interest (pGal4-hPPARalpha, pGal4-hPPARgamma, pGal4-hPPARdelta, pGal4-mPPARalpha, pGal4-mPPARgamma and pGal4-mPPARdelta) or of the pGal4phi plasmid (negative control). Cells were enzymatically detached and seeded in 96 well plates at the density of 40,000 cells per well and then incubated for 24 hours at 37° C. The activation was performed in DMEM 0% fetal calf serum, supplemented with the tested compounds (compound of interest or reference molecules) or vehicle (DMSO 0.1%). The luciferase activity was measured with the Steady-Glo Luciferase Assay System (Promega, Madison, WI). All transactivation experiments were performed at least 2 times. Activation curves were realized using Prism® (from GraphPad) software. Prism® was also used to fit the standard curves and then determine the specific EC50 values, maximum effect versus reference molecules and Hill slope. The Emax effect of each new ligand is represented as the ratio of the maximal induction (plateau) obtained with the new ligand and the induction obtained with the corresponding reference compound. The reference compounds for PPARalpha, PPARgamma and PPARdelta were fenofibrate (100 μM), rosiglitazone (10 μM) and GW501516 (1 μM), respectively.

PPARgamma [3] = biological target: T2, PPARgamma (Homo sapiens, UniProt P37231); assay: Gal4-PPAR transactivation assay in COS-7 cells, human PPARgamma; type: cell-based
T2 sequence (P37231 238-505 limits assumed): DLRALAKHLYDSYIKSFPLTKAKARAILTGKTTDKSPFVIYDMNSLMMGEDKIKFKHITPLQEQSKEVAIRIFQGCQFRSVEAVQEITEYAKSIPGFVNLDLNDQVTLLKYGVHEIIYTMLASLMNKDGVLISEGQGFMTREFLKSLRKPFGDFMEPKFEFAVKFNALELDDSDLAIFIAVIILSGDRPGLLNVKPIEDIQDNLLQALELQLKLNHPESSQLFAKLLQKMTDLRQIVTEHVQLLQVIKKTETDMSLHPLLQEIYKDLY
Method: as §1

PPARalpha [4] = biological target: T3, PPARalpha (Mus musculus, UniProt P23204); assay: Gal4-PPAR transactivation assay in COS-7 cells, murine PPARalpha; type: cell-based; details: Murin
T3 sequence (P23204 200-468 limits assumed): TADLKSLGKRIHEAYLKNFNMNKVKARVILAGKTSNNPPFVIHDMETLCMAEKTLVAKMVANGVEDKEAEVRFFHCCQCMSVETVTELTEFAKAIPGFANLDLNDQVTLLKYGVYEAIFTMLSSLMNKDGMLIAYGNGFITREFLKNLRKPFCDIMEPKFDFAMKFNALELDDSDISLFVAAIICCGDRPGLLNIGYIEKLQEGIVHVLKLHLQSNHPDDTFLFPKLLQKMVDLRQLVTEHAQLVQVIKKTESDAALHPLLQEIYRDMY
Method: as §1

PPARgamma [5] = biological target: T4, PPARgamma (Mus musculus, UniProt P37238); assay: Gal4-PPAR transactivation assay in COS-7 cells, murine PPARgamma; type: cell-based; details: Murin
T4 sequence (P37238 238-505 limits assumed): T2 sequence (P37231 238-505 limits assumed) with S93N, V98I, S146N, L226V, Q245H
Method: as §1

physchem = details: for solubility at 24 h: 20 °C, thermodynamic from solid
Method: The solubility of the compound is determined in buffered aqueous solution at pH 1, pH 3, pH 5 and pH 7.4.
The saturation is obtained by adding an excess of active ingredient to a given volume of test medium. The suspension is stirred by orbital stirring over 24 hours at […], away from light.
After 30 min, 1 hour, 2 hours and/or 24 hours, the supernatant is isolated by centrifugation and diluted in a solvent mixture allowing its injection into the chromatographic system. The concentration (expressed as parent concentration) in solution for each medium is determined by HPLC (external standardization).
After 24 hours an XRPD analysis is performed on the insoluble fraction isolated by centrifugation.
• pH 1 HCl/KCl buffer: a mixture of 0.373 g of KCl and 13.4 ml of HCl in a 100 mL volumetric flask was completed to 100 mL with de-ionized water. • pH 3 citrate buffer: 1.051 g of citric acid monohydrate was dissolved in 250 ml of de-ionized water. The pH was adjusted to 3 with NaOH. • pH 5 citrate/phosphate buffer: Solution I was prepared: 2.8392 g of Na2HPO4 in 100 mL volumetric flask was completed to 100 mL with de-ionized water. Solution II was prepared: 2.1004 g of citric acid monohydrate in a 100 mL volumetric flask was completed to 100 mL with de-ionized water. To 48.5 mL of Solution II were added 51.5 mL of Solution I. • pH 7.4 phosphate buffer: a mixture of 38 g of Na2HPO4, 12H2O and 3.8 g of Na2HPO4, 2H2O in a 1 L volumetric flask was completed to 1 L with de-ionized water. Salt Screening Macroscopic Observation

[6] = listed as Elafibranor L-Arginine salt

SMILES | Photostability compared to elafibranor free acid [1] | Elafibranor degradation (%) [1] | Final pH of the saturated solution (physchem; pH 1 HCl/KCl buffer) | Final pH of the saturated solution (physchem; pH 3 citrate buffer) | Final pH of the saturated solution (physchem; pH 5 citrate/phosphate buffer) | Final pH of the saturated solution (physchem; pH 7.4 phosphate buffer) | pEC50 (PPARalpha [2]) | pEC50 (PPARgamma [3]) | pEC50 (PPARalpha [4]) | pEC50 (PPARgamma [5]) | further results
CSc1ccc(C(=O)/C=C/c2cc(C)c(OC(C)(C)C(=O)O)c(C)c2)cc1.N=C(N)NCCC[C@H](N)C(=O)O [Form IV, Elafibranor L-arginate salt] | significant improvement of the photostability | 4% | – | – | – | – | – | – | – | – | pEC50 (PPARalpha [2]; [6]): 7.27; pEC50 (PPARgamma [3]; [6]): 6.49; pEC50 (PPARalpha [4]; [6]): 7.03; pEC50 (PPARgamma [5]; [6]): 6.24
CSc1ccc(C(=O)/C=C/c2cc(C)c(OC(C)(C)C(=O)O)c(C)c2)cc1 [Elafibranor, reference compound] | – | – | 0.7 | 2.9 | 4.9 | 7.3 | 7.24 | 6.37 | 7.02 | 6.24 | solubility at 24 h (physchem; pH 1, simulated gastric fluid): < 1 µg/mL; solubility at 24 h (physchem; pH 3, aqueous buffer): < 1 µg/mL; solubility at 24 h (physchem; pH 5, aqueous buffer): 1 µg/mL (≈ 2.6 µM); solubility at 24 h (physchem; pH 7.4, aqueous buffer): 130 µg/mL (≈ 338 µM); Elafibranor degradation (%) ([1]; listed as Free acid): 27%; Elafibranor degradation (%) ([1]; listed as elafibranor free acid): 27%
CSc1ccc(C(=O)/C=C/c2cc(C)c(OC(C)(C)C(=O)O)c(C)c2)cc1 [Form II, Elafibranor potassium salt] | significant improvement of the photostability | – | – | – | – | – | 7.19 | 6.37 | 7.02 | 6.23 | Elafibranor degradation (%) ([1]; listed as Potassium salt (Form II), potassium salt): 13%; Elafibranor degradation (%) ([1]; potassium salt): 13%
CSc1ccc(C(=O)/C=C/c2cc(C)c(OC(C)(C)C(=O)O)c(C)c2)cc1.NC(CO)(CO)CO [Form I, Elafibranor tromethamine salt] | significant improvement of the photostability | 10% | 0.9 | 3.1 | 5.1 | 7.3 | 7.17 | 6.31 | 6.99 | 6.14 | Soluble fraction (mg/mL) at 20° C. at 24 hours (physchem; pH 1 HCl/KCl buffer): <0.001 mg/mL; Soluble fraction (mg/mL) at 20° C. at 24 hours (physchem; pH 3 citrate buffer): <0.001 mg/mL; Soluble fraction (mg/mL) at 20° C. at 24 hours (physchem; pH 5 citrate/phosphate buffer): 0.003 mg/mL; Solubility compared to elafibranor (physchem; pH 7.4): more soluble than elafibranor; Soluble fraction (mg/mL) at 20° C. at 24 hours (physchem; pH 7.4 phosphate buffer): 0.19 mg/mL
CSc1ccc(C(=O)/C=C/c2cc(C)c(OC(C)(C)C(=O)O)c(C)c2)cc1 [Form III, Elafibranor sodium salt] | – | – | – | – | – | – | 7.11 | 6.25 | 6.88 | 6.11 | Elafibranor degradation (%) ([1]; sodium salt): 89%

Reference: patent US12030840B2 (GENFIT, priority 2018, dated 2024)
